According to patent publication US9822089B2, “R type of resveratrol dimer, preparation process therefor and purpose thereof in lowering blood sugar level” (priority 2013, dated 2017):

Key:
[1] = system: alpha-glucosidase; settings: in vitro; multiple of the activity of acarbose; cited from earlier work
[2] = system: sucrose-induced high blood sugar level of a mouse; assay: orally-administered sucrose tolerance test for normal mice; format: in vivo; settings: for Blood sugar concentration: drug 0.33 mg/ml suspension, 0.3 ml per 10 g intragastric 30 min before, x ± s, n = 10; for area under the sucrose tolerance test curve: FIG. 1, negative control group 21.0 mmol h/L; for blood glucose-lowering rate: compared with the negative control group; for lowering of sucrose-induced high blood sugar level of a mouse (in words): sucrose load
Method: A mean body weight of mice was 22 g to 25 g. The mice were randomly divided into 6 groups, and each group included 10 animals. Each group of animals was intragastrically administered with a drug after 12 hours of fasting.
For a normal control group, a 0.5% CMC-Na solution whose volume is equal to that of a positive control group was administered.
For a negative control group, a 0.5% CMC-Na solution whose volume is equal to that of a positive control group was administered.
For an acarbose group, a 0.33 mg/ml acarbose suspension that was prepared by using a 0.5% CMC-Na solution was administered at a dosage of 0.3 ml per 10 g of weight.
For a TVN racemate group, a 0.33 mg/ml TVN racemate suspension that was prepared by using a 0.5% CMC-Na solution was administered at a dosage of 0.3 ml per 10 g of weight.
For a (S,S)-TVN group, a 0.33 mg/ml (S,S)-TVN suspension that was prepared by using a 0.5% CMC-Na solution was administered tat a dosage of 0.3 ml per 10 g of weight.
For a (R,R)-TVN group, a 0.33 mg/ml (R,R)-TVN suspension that was prepared by using a 0.5% CMC-Na solution was administered at a dosage of 0.3 ml per 10 g of weight.
After 30 min, animals in the groups other than the normal group were intragastrically administered with a 6.7% sucrose solution at a dosage of 0.3 ml per 10 g of weight, and animals in the normal group were intragastrically administered with water whose volume is equal to that of the sucrose solution. Orbital blood sampling was separately performed at four time points, namely 0 h, 0.5 h, 1 h, and 2 h after intragastric administration of the sucrose solution to the animals. Then, 2 μL of blood serum was taken after centrifugation and added into a 96-pore plate. Thereafter, 200 μL of a reagent from a glucose assay kit was further added thereinto and a 505 nm micro-plate reader was used to measure a value of absorbance. A blood sugar concentration was obtained from a standard curve. Refer to the table below:
All data was represented by using a mean value±a standard deviation (x±s). SPSS11.5 software was used for analysis, and data comparison was performed by means of a one-way analysis of variance. P<0.05 represents that there was a significant difference; and P<0.01 represents that there was an extremely significant difference.

[3] = 0.5 h after intragastric sucrose

Oc1ccc(C2Oc3ccc(/C=C/c4cc(O)cc(O)c4)cc3C2c2cc(O)cc(O)c2)cc1 (racemic) [TVN racemate, trans-δ-viniferin]
alpha-glucosidase inhibitory activity relative to acarbose [1]: 254 times | Blood sugar concentration ([2]; 0 h after intragastric sucrose): 7.75 ± 1.57 mmol/L | Blood sugar concentration [2, 3]: 10.34 ± 1.75 mmol/L | Blood sugar concentration ([2]; 1 h after intragastric sucrose): 9.07 ± 1.55 mmol/L | Blood sugar concentration ([2]; 2 h after intragastric sucrose): 8.83 ± 1.46 mmol/L | area under the sucrose tolerance test curve [2]: 18.3 mmol·h/L | blood glucose-lowering rate ([2]; at 0.5 h): 13.98% | blood glucose-lowering rate ([2]; at 1 h): 14.60% | lowering of sucrose-induced high blood sugar level of a mouse (in words) [2]: has a hypoglycemic activity between hypoglycemic activities of the both

Oc1ccc([C@H]2Oc3ccc(/C=C/c4cc(O)cc(O)c4)cc3[C@@H]2c2cc(O)cc(O)c2)cc1 [(S,S)-TVN, (7S,8S)-trans-δ-viniferin]
area under the sucrose tolerance test curve [2]: 20.9 mmol·h/L | blood glucose-lowering rate ([2]; at 0.5 h): 0.08% | blood glucose-lowering rate ([2]; at 1 h): 3.01% | lowering of sucrose-induced high blood sugar level of a mouse (in words) [2]: cannot significantly lower a sucrose-induced high blood sugar level of a mouse

C[C@H]1O[C@H](O[C@H]2[C@H](O)[C@@H](O)[C@@H](O[C@H]3[C@H](O)[C@@H](O)C(O)O[C@@H]3CO)O[C@@H]2CO)[C@H](O)[C@@H](O)[C@@H]1N[C@H]1C=C(CO)[C@@H](O)[C@H](O)[C@H]1O (some centres unmarked) [Acarbose, acarbose]
Blood sugar concentration ([2]; 0 h after intragastric sucrose): 7.94 ± 1.25 mmol/L | Blood sugar concentration [2, 3]: 9.74 ± 1.45 mmol/L | Blood sugar concentration ([2]; 1 h after intragastric sucrose): 8.32 ± 1.50 mmol/L | Blood sugar concentration ([2]; 2 h after intragastric sucrose): 8.54 ± 1.04 mmol/L | blood glucose-lowering rate ([2]; at 0.5 h): 18.97% | blood glucose-lowering rate ([2]; at 1 h): 21.66%

Oc1ccc([C@@H]2Oc3ccc(/C=C/c4cc(O)cc(O)c4)cc3[C@H]2c2cc(O)cc(O)c2)cc1 [(R,R)-TVN, (7R,8R)-trans-δ-viniferin]
area under the sucrose tolerance test curve [2]: 16.7 mmol·h/L | blood glucose-lowering rate ([2]; at 0.5 h): 30.20% | blood glucose-lowering rate ([2]; at 1 h): 22.79% | lowering of sucrose-induced high blood sugar level of a mouse (in words) [2]: can significantly lower a sucrose-induced high blood sugar level of a mouse, and has a better effect than the TVN racemate
